In brackets after ≈: the same amount, converted by molar mass.
Tests used:
Assay type in all cases: functional
[1] = system: Mycobacterium tuberculosis; test: Antimycobacterial activity against isoniazid resistant Mycobacterium tuberculosis clinical isolate incubated for 7 days by resazurin microtitre assay; conditions: 168 h, time 7 day
[2] = system: Mycobacterium tuberculosis; test: Antimycobacterial activity against isoniazid, rifampicin, ethambutol, pyrazinamide, streptomycin, capreomycin, amikacin, kanamycin, ofloxacin, and ethionamide resistant Mycobacterium tuberculosis clinical isolate incubated for 7 days by resazurin microtitre assay; conditions: 168 h, time 7 day
[3] = system: Mycobacterium tuberculosis; test: Antimycobacterial activity against isoniazid, rifampicin, ethambutol, pyrazinamide, capreomycin, and ethionamide resistant Mycobacterium tuberculosis clinical isolate incubated for 7 days by resazurin microtitre assay; conditions: 168 h, time 7 day
[4] = system: Mycobacterium tuberculosis; test: Antimycobacterial activity against multidrug-resistant Mycobacterium tuberculosis H37Rv assessed as inhibition of bacterial growth by alamar blue assay
[5] = system: Mycobacterium tuberculosis; test: Antimycobacterial activity against extensively-resistant Mycobacterium tuberculosis H37Rv assessed as inhibition of bacterial growth by alamar blue assay
[6] = system: Mycobacterium tuberculosis; test: Antimycobacterial activity against isoniazid and ethionamide resistant Mycobacterium tuberculosis clinical isolate B
[7] = system: Mycobacterium tuberculosis; test: Antimycobacterial activity against isoniazid, streptomycin and ethionamide resistant Mycobacterium tuberculosis clinical isolate F
[8] = system: Mycobacterium tuberculosis; test: Antimycobacterial activity against isoniazid and rifampicin resistant Mycobacterium tuberculosis clinical isolate D
[9] = system: Mycobacterium tuberculosis; test: Antimycobacterial activity against isoniazid, streptomycin, and rifampicin resistant Mycobacterium tuberculosis clinical isolate C
[10] = system: Mycobacterium tuberculosis; test: Antimycobacterial activity against isoniazid, streptomycin, rifampicin, ethambutol and ethionamide resistant Mycobacterium tuberculosis clinical isolate G
[11] = system: Mycobacterium tuberculosis; test: Antimycobacterial activity against isoniazid, streptomycin, rifampicin, ethambutol, ethionamide and ofloxacin resistant Mycobacterium tuberculosis clinical isolate H
[12] = system: Mycobacterium tuberculosis; test: Antimycobacterial activity against isoniazid, streptomycin, ethambutol and ethionamide resistant Mycobacterium tuberculosis clinical isolate A
[13] = system: Mycobacterium tuberculosis; test: Antimycobacterial activity against isoniazid and ethionamide resistant Mycobacterium tuberculosis clinical isolate E
[14] = system: Mycobacterium tuberculosis; test: Antitubercular activity against extensively drug resistant Mycobacterium tuberculosis clinical isolate 4 by resazurin microtitre assay
[15] = system: Mycobacterium tuberculosis; test: Antitubercular activity against extensively drug resistant Mycobacterium tuberculosis clinical isolate 5 by resazurin microtitre assay
[16] = system: Mycobacterium tuberculosis; test: Antitubercular activity against multidrug resistant Mycobacterium tuberculosis clinical isolate 8 by resazurin microtitre assay
[17] = system: Mycobacterium tuberculosis; test: Antitubercular activity against multidrug resistant Mycobacterium tuberculosis clinical isolate 6 by resazurin microtitre assay
[18] = system: Mycobacterium tuberculosis; test: Antitubercular activity against multidrug resistant Mycobacterium tuberculosis clinical isolate 1 by resazurin microtitre assay
[19] = system: Mycobacterium tuberculosis; test: Antimycobacterial activity against extensively drug resistant Mycobacterium tuberculosis H37Rv
[20] = system: Mycobacterium tuberculosis; test: Antitubercular activity against extensively drug resistant Mycobacterium tuberculosis clinical isolate 11 by resazurin microtitre assay
[21] = system: Mycobacterium tuberculosis; test: Antitubercular activity against extensively drug resistant Mycobacterium tuberculosis clinical isolate 7 by resazurin microtitre assay
[22] = system: Mycobacterium tuberculosis; test: Antitubercular activity against multidrug resistant Mycobacterium tuberculosis clinical isolate 9 by resazurin microtitre assay
[23] = system: Mycobacterium tuberculosis; test: Antitubercular activity against extensively drug resistant Mycobacterium tuberculosis clinical isolate 8 by resazurin microtitre assay
[24] = system: Mycobacterium tuberculosis; test: Antitubercular activity against extensively drug resistant Mycobacterium tuberculosis clinical isolate 3 by resazurin microtitre assay
[25] = system: Mycobacterium tuberculosis; test: Antitubercular activity against extensively drug resistant Mycobacterium tuberculosis KMRC 0 0203-0 0197 by resazurin microtitre assay
[26] = system: Mycobacterium tuberculosis; test: Antimycobacterial activity against multidrug resistant Mycobacterium tuberculosis H37Rv
[27] = system: Mycobacterium tuberculosis; test: Antitubercular activity against extensively drug resistant Mycobacterium tuberculosis clinical isolate 1 by resazurin microtitre assay
[28] = system: Mycobacterium tuberculosis; test: Antitubercular activity against extensively drug resistant Mycobacterium tuberculosis clinical isolate 9 by resazurin microtitre assay
[29] = system: Mycobacterium tuberculosis; test: Antitubercular activity against multidrug resistant Mycobacterium tuberculosis clinical isolate 4 by resazurin microtitre assay
[30] = system: Mycobacterium tuberculosis; test: Antitubercular activity against extensively drug resistant Mycobacterium tuberculosis clinical isolate 6 by resazurin microtitre assay
[31] = system: Mycobacterium tuberculosis; test: Antitubercular activity against extensively drug resistant Mycobacterium tuberculosis clinical isolate 2 by resazurin microtitre assay
[32] = system: Mycobacterium tuberculosis; test: Antitubercular activity against multidrug resistant Mycobacterium tuberculosis clinical isolate 7 by resazurin microtitre assay
[33] = system: Mycobacterium tuberculosis; test: Antitubercular activity against multidrug resistant Mycobacterium tuberculosis clinical isolate 5 by resazurin microtitre assay
[34] = system: Mycobacterium tuberculosis; test: Antitubercular activity against multidrug resistant Mycobacterium tuberculosis clinical isolate 10 by resazurin microtitre assay
[35] = system: Mycobacterium tuberculosis; test: Antitubercular activity against multidrug resistant Mycobacterium tuberculosis clinical isolate 2 by resazurin microtitre assay
[36] = system: Mycobacterium tuberculosis; test: Antitubercular activity against extensively drug resistant Mycobacterium tuberculosis clinical isolate 10 by resazurin microtitre assay
[37] = system: Mycobacterium tuberculosis; test: Antitubercular activity against multidrug resistant Mycobacterium tuberculosis clinical isolate 3 by resazurin microtitre assay
[38] = system: Mycobacterium tuberculosis; test: Antitubercular activity against multidrug resistant Mycobacterium tuberculosis clinical isolate 11 by resazurin microtitre assay
[39] = system: Mycobacterium tuberculosis; test: Antimycobacterial activity against Mycobacterium tuberculosis clinical isolate 383-0 harboring wild type gyrA and wild type gyrB
[40] = system: Mycobacterium tuberculosis; test: Antimycobacterial activity against Mycobacterium tuberculosis clinical isolate 775-0 harboring gyrA QRDR c270t (A90V) mutant and wild type gyrB
[41] = system: Mycobacterium tuberculosis; test: Antimycobacterial activity against Mycobacterium tuberculosis clinical isolate 666-0 harboring wild type gyrA and wild type gyrB
[42] = system: Mycobacterium tuberculosis; test: Antimycobacterial activity against Mycobacterium tuberculosis clinical isolate 427-18 harboring gyrA QRDR c270t (A90V) mutant and wild type gyrB
[43] = system: Mycobacterium tuberculosis; test: Antimycobacterial activity against Mycobacterium tuberculosis clinical isolate 152-0 harboring wild type gyrA and wild type gyrB
[44] = system: Mycobacterium tuberculosis; test: Antimycobacterial activity against Mycobacterium tuberculosis clinical isolate 742-0 harboring gyrA QRDR a282g (D94G) mutant and wild type gyrB
[45] = system: Mycobacterium tuberculosis; test: Antimycobacterial activity against Mycobacterium tuberculosis clinical isolate 581-17 harboring gyrA QRDR c270t (A90V) mutant and wild type gyrB
[46] = system: Mycobacterium tuberculosis; test: Antimycobacterial activity against Mycobacterium tuberculosis H37Rv harboring wild type gyrA and wild type gyrB
[47] = system: Mycobacterium tuberculosis; test: Antimycobacterial activity against Mycobacterium tuberculosis clinical isolate 199-00 harboring gyrA QRDR c270t (A90V) mutant and wild type gyrB
[48] = system: Mycobacterium tuberculosis; test: Antimycobacterial activity against Mycobacterium tuberculosis clinical isolate 410-11 harboring wild type and wild type gyrB
[49] = system: Mycobacterium tuberculosis; test: Antimycobacterial activity against Mycobacterium tuberculosis clinical isolate 124-0 harboring wild type gyrA and wild type gyrB

`CC(=O)N1/C(=C/c2ccc(Br)cc2)C(=O)c2ccccc21` gave an MIC [1] of 15.2 µM (≈ 5.2 µg/mL), an MIC [2] of 15.2 µM (≈ 5.2 µg/mL) and an MIC [3] of 9.15 µM (≈ 3.13 µg/mL).

Compound `CC(=O)N1/C(=C/c2ccc(-c3ccc(Cl)cc3)cc2)C(=O)c2ccccc21` has an MIC [1] of 8.37 µM (≈ 3.13 µg/mL), an MIC [2] of 8.37 µM (≈ 3.13 µg/mL) and an MIC [3] of 10.4 µM (≈ 3.89 µg/mL).

With `Cc1cc(O)n2nc(Nc3ccc(F)c(F)c3)c(C(=O)Nc3ccc(F)cc3)c2n1` the MIC [4] was 3.12 µg/mL (≈ 7.55 µM) and the MIC [5] was 25 µg/mL (≈ 60.5 µM).

With `Oc1ccc(-c2nnc(S)o2)cc1` the MIC [6] was 8 µg/mL (≈ 41.2 µM), the MIC [7] was 8 µg/mL (≈ 41.2 µM) and the MIC [8] was > 32 µg/mL. The MIC [9] was 16 µg/mL (≈ 82.4 µM), the MIC [10] was > 32 µg/mL and the MIC [11] was 2 µg/mL (≈ 10.3 µM). The MIC [12] was > 32 µg/mL and the MIC [13] was 16 µg/mL (≈ 82.4 µM).

For `NNC(=O)c1ccncc1` [ISONIAZID], the MIC [14] was 12.5 µg/mL (≈ 91.1 µM), the MIC [15] was 12.5 µg/mL (≈ 91.1 µM) and the MIC [16] was 12.5 µg/mL (≈ 91.1 µM). The MIC [17] was 25 µg/mL (≈ 182 µM), the MIC [18] was 12.5 µg/mL (≈ 91.1 µM) and the MIC [19] was 50 µg/mL (≈ 365 µM). It also gave an MIC [20] of 6.25 µg/mL (≈ 45.6 µM), an MIC [21] of 6.25 µg/mL (≈ 45.6 µM) and an MIC [22] of 25 µg/mL (≈ 182 µM). The MIC [23] was 12.5 µg/mL (≈ 91.1 µM), the MIC [24] was 3.13 µg/mL (≈ 22.8 µM) and the MIC [25] was 25 µg/mL (≈ 182 µM). The MIC [26] was 6.25 µg/mL (≈ 45.6 µM), the MIC [27] was 12.5 µg/mL (≈ 91.1 µM) and the MIC [4] was 6.25 µg/mL (≈ 45.6 µM). It also gave an MIC [28] of 50 µg/mL (≈ 365 µM), an MIC [29] of 25 µg/mL (≈ 182 µM) and an MIC [30] of 12.5 µg/mL (≈ 91.1 µM). For the same compound, the MIC [5] was 50 µg/mL (≈ 365 µM), the MIC [31] was 3.13 µg/mL (≈ 22.8 µM) and the MIC [32] was 50 µg/mL (≈ 365 µM). For the same compound, the MIC [33] was 12.5 µg/mL (≈ 91.1 µM), the MIC [34] was 3.13 µg/mL (≈ 22.8 µM) and the MIC [35] was 12.5 µg/mL (≈ 91.1 µM). The MIC [36] was > 200 µg/mL, the MIC [37] was 3.13 µg/mL (≈ 22.8 µM) and the MIC [38] was 12.5 µg/mL (≈ 91.1 µM).

`Cc1cc(O)n2nc(Nc3ccc(Cl)c(Cl)c3)c(C(N)=O)c2n1` gave an MIC [4] of 12.5 µg/mL (≈ 35.5 µM) and an MIC [5] of 50 µg/mL (≈ 142 µM).

For `CC(C)(C)n1cc(C(=O)O)c(=O)c2cc(F)c(-c3ccc(O)cc3)cc21`, the MIC [39] was 2 µg/mL (≈ 5.63 µM), the MIC [40] was 2 µg/mL (≈ 5.63 µM) and the MIC [41] was 2 µg/mL (≈ 5.63 µM). The MIC [42] was 1 µg/mL (≈ 2.81 µM), the MIC [43] was 2 µg/mL (≈ 5.63 µM) and the MIC [44] was 2 µg/mL (≈ 5.63 µM). For the same compound, the MIC [45] was 8 µg/mL (≈ 22.5 µM), the MIC [46] was 1 µg/mL (≈ 2.81 µM) and the MIC [47] was 2 µg/mL (≈ 5.63 µM). It also gave an MIC [48] of 2 µg/mL (≈ 5.63 µM) and an MIC [49] of 1 µg/mL (≈ 2.81 µM).

For `CCN(CC)CCOc1c(C(=O)OC)c2c3c(oc2c2ccccc12)C(=O)c1ccccc1C3=O`, the MIC [14] was 0.19 µg/mL (≈ 0.403 µM), the MIC [15] was 0.19 µg/mL (≈ 0.403 µM) and the MIC [16] was 0.39 µg/mL (≈ 0.827 µM). For the same compound, the MIC [17] was 0.02 µg/mL (≈ 0.0424 µM), the MIC [18] was 0.19 µg/mL (≈ 0.403 µM) and the MIC [20] was 0.19 µg/mL (≈ 0.403 µM). The MIC [21] was 0.19 µg/mL (≈ 0.403 µM), the MIC [22] was 0.02 µg/mL (≈ 0.0424 µM) and the MIC [23] was 0.19 µg/mL (≈ 0.403 µM). For the same compound, the MIC [24] was 0.19 µg/mL (≈ 0.403 µM), the MIC50 [25] was 0.19 µg/mL (≈ 0.403 µM) and the MIC [27] was 0.02 µg/mL (≈ 0.0424 µM). The MIC [28] was 0.19 µg/mL (≈ 0.403 µM), the MIC [29] was 0.19 µg/mL (≈ 0.403 µM) and the MIC [30] was 0.19 µg/mL (≈ 0.403 µM). For the same compound, the MIC [31] was 0.02 µg/mL (≈ 0.0424 µM), the MIC [32] was 0.02 µg/mL (≈ 0.0424 µM) and the MIC [33] was 0.19 µg/mL (≈ 0.403 µM). The MIC [34] was 0.02 µg/mL (≈ 0.0424 µM), the MIC [35] was 0.02 µg/mL (≈ 0.0424 µM) and the MIC [36] was 0.02 µg/mL (≈ 0.0424 µM). For the same compound, the MIC [37] was 0.19 µg/mL (≈ 0.403 µM) and the MIC [38] was 0.39 µg/mL (≈ 0.827 µM).

`CC(C)(C)n1cc(C(=O)O)c(=O)c2cc(F)c(-c3cccnc3)cc21` gave an MIC [39] of 2 µg/mL (≈ 5.88 µM), an MIC [40] of 2 µg/mL (≈ 5.88 µM) and an MIC [41] of 4 µg/mL (≈ 11.8 µM). The MIC [42] was 1 µg/mL (≈ 2.94 µM), the MIC [43] was 4 µg/mL (≈ 11.8 µM) and the MIC [44] was 32 µg/mL (≈ 94 µM). The MIC [45] was 2 µg/mL (≈ 5.88 µM), the MIC [46] was 0.5 µg/mL (≈ 1.47 µM) and the MIC [47] was 4 µg/mL (≈ 11.8 µM). The MIC [48] was 4 µg/mL (≈ 11.8 µM) and the MIC [49] was 1 µg/mL (≈ 2.94 µM).

Reference: ChEMBL document CHEMBL5244273, “Tuberculosis: An Overview of the Immunogenic Response, Disease Progression, and Medicinal Chemistry Efforts in the Last Decade toward the Development of Potential Drugs for Extensively Drug-Resistant Tuberculosis Strains” (J Med Chem, 2021)
